PubChem BioAssay AID1259407 (Chemical Carcinogenesis Research Information System (CCRIS), 2018)
The source made the active and inactive calls. No rule for the calls is given here.

Test system: CCRIS mutagenicity, Ames/micronucleus/aberration tests
Experiment: CCRIS mutagenicity studies
[1] = Test System: AMES SALMONELLA TYPHIMURIUM, Strain/Indicator: TA100, Metabolic Activation: NONE, Method: PREINCUBATION
[2] = Test System: AMES SALMONELLA TYPHIMURIUM, Strain/Indicator: TA100, Metabolic Activation: RAT, LIVER, S-9, AROCLOR 1254, Method: STANDARD PLATE
[3] = Test System: AMES SALMONELLA TYPHIMURIUM, Strain/Indicator: TA98, Metabolic Activation: NONE, Method: STANDARD PLATE
[4] = Test System: AMES SALMONELLA TYPHIMURIUM, Strain/Indicator: TA100, Metabolic Activation: NONE, Method: STANDARD PLATE

Compound: CC(=O)/C=C/C1=C(C)CCCC1(C)C
- mutagenic call (Test System: AMES SALMONELLA TYPHIMURIUM, Strain/Indicator: TA98, Metabolic Activation: HAMSTER, LIVER, S-9, AROCLOR 1254 (10%), Method: PREINCUBATION): inactive; negative
- mutagenic call (Test System: AMES SALMONELLA TYPHIMURIUM, Strain/Indicator: TA98, Metabolic Activation: NONE, Method: PREINCUBATION): inactive; negative
- mutagenic call (Test System: AMES SALMONELLA TYPHIMURIUM, Strain/Indicator: TA98, Metabolic Activation: RAT, LIVER, S-9, AROCLOR 1254 (10%), Method: PREINCUBATION): inactive; negative
- mutagenic call (Test System: AMES SALMONELLA TYPHIMURIUM, Strain/Indicator: TA100, Metabolic Activation: HAMSTER, LIVER, S-9, AROCLOR 1254 (10%), Method: PREINCUBATION): inactive; negative
- mutagenic call [1]: inactive; negative
- mutagenic call (Test System: AMES SALMONELLA TYPHIMURIUM, Strain/Indicator: TA100, Metabolic Activation: RAT, LIVER, S-9, AROCLOR 1254 (10%), Method: PREINCUBATION): inactive; negative
- mutagenic call (Test System: AMES SALMONELLA TYPHIMURIUM, Strain/Indicator: TA1535, Metabolic Activation: HAMSTER, LIVER, S-9, AROCLOR 1254 (10%), Method: PREINCUBATION): inactive; negative
- mutagenic call (Test System: AMES SALMONELLA TYPHIMURIUM, Strain/Indicator: TA1535, Metabolic Activation: NONE, Method: PREINCUBATION): inactive; negative
- mutagenic call (Test System: AMES SALMONELLA TYPHIMURIUM, Strain/Indicator: TA1535, Metabolic Activation: RAT, LIVER, S-9, AROCLOR 1254 (10%), Method: PREINCUBATION): inactive; negative
- mutagenic call (Test System: AMES SALMONELLA TYPHIMURIUM, Strain/Indicator: TA1537, Metabolic Activation: HAMSTER, LIVER, S-9, AROCLOR 1254 (10%), Method: PREINCUBATION): inactive; negative
- mutagenic call (Test System: AMES SALMONELLA TYPHIMURIUM, Strain/Indicator: TA1537, Metabolic Activation: NONE, Method: PREINCUBATION): inactive; negative
- mutagenic call (Test System: AMES SALMONELLA TYPHIMURIUM, Strain/Indicator: TA1537, Metabolic Activation: RAT, LIVER, S-9, AROCLOR 1254 (10%), Method: PREINCUBATION): inactive; negative
- mutagenic call (Test System: Ames Salmonella typhimurium, Strain/Indicator: TA97a, Metabolic Activation: None, Method: Preincubation): inactive; negative
- mutagenic call (Test System: Ames Salmonella typhimurium, Strain/Indicator: TA97a, Metabolic Activation: None, Method: Standard plate): inactive; negative
- mutagenic call (Test System: Ames Salmonella typhimurium, Strain/Indicator: TA97a, Metabolic Activation: Rat, Liver, S-9, Aroclor 1254, Method: Preincubation): inactive; negative
- mutagenic call (Test System: Ames Salmonella typhimurium, Strain/Indicator: TA97a, Metabolic Activation: Rat, Liver, S-9, Aroclor 1254, Method: Standard plate): inactive; negative
- mutagenic call (Test System: Ames Salmonella typhimurium, Strain/Indicator: TA98, Metabolic Activation: None, Method: Preincubation): inactive; negative
- mutagenic call (Test System: Ames Salmonella typhimurium, Strain/Indicator: TA98, Metabolic Activation: None, Method: Standard plate): inactive; negative
- mutagenic call (Test System: Ames Salmonella typhimurium, Strain/Indicator: TA98, Metabolic Activation: Rat, Liver, S-9, Aroclor 1254, Method: Preincubation): inactive; negative
- mutagenic call (Test System: Ames Salmonella typhimurium, Strain/Indicator: TA98, Metabolic Activation: Rat, Liver, S-9, Aroclor 1254, Method: Standard plate): inactive; negative
- mutagenic call (Test System: Ames Salmonella typhimurium, Strain/Indicator: TA100, Metabolic Activation: None, Method: Preincubation): inactive; negative
- mutagenic call (Test System: Ames Salmonella typhimurium, Strain/Indicator: TA100, Metabolic Activation: None, Method: Standard plate): inactive; negative
- mutagenic call (Test System: Ames Salmonella typhimurium, Strain/Indicator: TA100, Metabolic Activation: Rat, Liver, S-9, Aroclor 1254, Method: Preincubation): inactive; negative
- mutagenic call (Test System: Ames Salmonella typhimurium, Strain/Indicator: TA100, Metabolic Activation: Rat, Liver, S-9, Aroclor 1254, Method: Standard plate): inactive; negative
- mutagenic call (Test System: Ames Salmonella typhimurium, Strain/Indicator: TA1535, Metabolic Activation: None, Method: Preincubation): inactive; negative
- mutagenic call (Test System: Ames Salmonella typhimurium, Strain/Indicator: TA1535, Metabolic Activation: None, Method: Standard plate): inactive; negative
- mutagenic call (Test System: Ames Salmonella typhimurium, Strain/Indicator: TA1535, Metabolic Activation: Rat, Liver, S-9, Aroclor 1254, Method: Preincubation): inactive; negative
- mutagenic call (Test System: Ames Salmonella typhimurium, Strain/Indicator: TA1535, Metabolic Activation: Rat, Liver, S-9, Aroclor 1254, Method: Standard plate): inactive; negative

Compound: [O]=[Cr][O][Cr]=[O]
- mutagenic call (Test System: CHINESE HAMSTER V-79, Strain/Indicator: V-79/6-THIOGUANINE, Metabolic Activation: NONE): active; positive

Compound: c1cc2ccc3cc4cccc5ccc6cc(c1)c2c3c6c54
- mutagenic call [2]: active; positive

Compound: Cl[Si](Cl)(Cl)Cl
- mutagenic call [3]: inactive; negative
- mutagenic call (Test System: AMES SALMONELLA TYPHIMURIUM, Strain/Indicator: TA98, Metabolic Activation: RAT LIVER S-9, AROCLOR 1254, Method: STANDARD PLATE): inactive; negative
- mutagenic call [4]: inactive; negative
- mutagenic call (Test System: AMES SALMONELLA TYPHIMURIUM, Strain/Indicator: TA100, Metabolic Activation: RAT LIVER S-9, AROCLOR 1254, Method: STANDARD PLATE): inactive; negative
- mutagenic call (Test System: AMES SALMONELLA TYPHIMURIUM, Strain/Indicator: TA1535, Metabolic Activation: NONE, Method: STANDARD PLATE): inactive; negative
- mutagenic call (Test System: AMES SALMONELLA TYPHIMURIUM, Strain/Indicator: TA1535, Metabolic Activation: RAT LIVER S-9, AROCLOR 1254, Method: STANDARD PLATE): inactive; negative
- mutagenic call (Test System: AMES SALMONELLA TYPHIMURIUM, Strain/Indicator: TA1537, Metabolic Activation: NONE, Method: STANDARD PLATE): inactive; negative
- mutagenic call (Test System: AMES SALMONELLA TYPHIMURIUM, Strain/Indicator: TA1537, Metabolic Activation: RAT LIVER S-9, AROCLOR 1254, Method: STANDARD PLATE): inactive; negative
- mutagenic call (Test System: AMES SALMONELLA TYPHIMURIUM, Strain/Indicator: TA1538, Metabolic Activation: NONE, Method: STANDARD PLATE): inactive; negative
- mutagenic call (Test System: AMES SALMONELLA TYPHIMURIUM, Strain/Indicator: TA1538, Metabolic Activation: RAT LIVER S-9, AROCLOR 1254, Method: STANDARD PLATE): inactive; negative
- mutagenic call (Test System: E. COLI, Strain/Indicator: P3078 POLA, Metabolic Activation: NONE, Method: SPOT TEST): inactive; negative
- mutagenic call (Test System: E. COLI, Strain/Indicator: P3078 POLA, Metabolic Activation: RAT LIVER S-9, AROCLOR 1254, Method: SPOT TEST): inactive; negative
- mutagenic call (Test System: E. COLI, Strain/Indicator: W3110, Metabolic Activation: NONE, Method: SPOT TEST): inactive; negative
- mutagenic call (Test System: E. COLI, Strain/Indicator: W3110, Metabolic Activation: RAT LIVER S-9, AROCLOR 1254, Method: SPOT TEST): inactive; negative
- mutagenic call (Test System: MOUSE LYMPHOMA, Strain/Indicator: L5178Y (TK+/TK-), Metabolic Activation: NONE, Method: SUSPENSION/PLATE): inactive; negative
- mutagenic call (Test System: MOUSE LYMPHOMA, Strain/Indicator: L5178Y (TK+/TK-), Metabolic Activation: RAT, LIVER, S-9, Method: SUSPENSION/PLATE): inactive; negative

Compound: C=C(Br)C=O
- mutagenic call (Test System: AMES SALMONELLA TYPHIMURIUM, Strain/Indicator: TA100, Metabolic Activation: NONE, Method: LIQUID INCUBATION): active; positive
- mutagenic call [1]: active; positive
- mutagenic call (Test System: AMES SALMONELLA TYPHIMURIUM, Strain/Indicator: TA100, Metabolic Activation: NONE, Method: PREINCUBATION, LIQUID INCUBATION): active; positive
- mutagenic call [4]: active; positive
- mutagenic call (Test System: AMES SALMONELLA TYPHIMURIUM, Strain/Indicator: TA100, Metabolic Activation: RAT, LIVER, MICROSOMES, Method: PREINCUBATION): active; positive
- mutagenic call (Test System: AMES SALMONELLA TYPHIMURIUM, Strain/Indicator: TA104, Metabolic Activation: NONE, Method: PREINCUBATION): active; positive
- mutagenic call (Test System: AMES SALMONELLA TYPHIMURIUM, Strain/Indicator: TA1535, Metabolic Activation: NONE, Method: LIQUID INCUBATION): active; positive
- mutagenic call (Test System: AMES SALMONELLA TYPHIMURIUM, Strain/Indicator: TA1535, Metabolic Activation: NONE, Method: PREINCUBATION, LIQUID INCUBATION): active; positive
- mutagenic call (Test System: UDS RAT HEPATOCYTES, Strain/Indicator: THY INCORP, Metabolic Activation: NONE): inactive; negative

Compound: CC1=C[C@H]2O[C@@H]3[C@H](O)C[C@](C)([C@@]2(CO)[C@H](O)C1=O)[C@]31CO1
- mutagenic call (End Point: IN VITRO CHROMOSOMAL ABERRATIONS, Test System: CHINESE HAMSTER V79 CELLS, Metabolic Activation: NONE): active; positive (structural changes)
- mutagenic call [3]: inactive; negative
- mutagenic call (Test System: AMES SALMONELLA TYPHIMURIUM, Strain/Indicator: TA98, Metabolic Activation: RAT LIVER S-9, DELOR 103, Method: STANDARD PLATE): inactive; negative
- mutagenic call (Test System: AMES SALMONELLA TYPHIMURIUM, Strain/Indicator: TA98, Metabolic Activation: RAT, LIVER, S-9, AROCLOR 1254, Method: STANDARD PLATE): inactive; negative
- mutagenic call [4]: inactive; negative
- mutagenic call (Test System: AMES SALMONELLA TYPHIMURIUM, Strain/Indicator: TA100, Metabolic Activation: RAT LIVER S-9, DELOR 103, Method: STANDARD PLATE): inactive; negative
- mutagenic call [2]: inactive; negative

Compound: Nc1[nH]c(=O)nc2c1ncn2[C@H]1C[C@H](O)[C@@H](CO)O1
- mutagenic call [1]: inactive; negative
